Reference: patent US6495131B1, “Interleukin-3 gene therapy for cancer” (priority 1998, dated 2002)

Each compound was assayed on ROS-1 osteosarcoma (assay: Tumor growth of ROS-1 osteosarcoma in hindlimb after ILP or intra-tumoral injection). Details: ROS-1, ILP 15 minutes, 1.10^9 iu vector plus 50 μg TNFα, 40 μg melphalan or 200 μg doxorubicin per rat.
Format: in vivo
Protocol: The rapidly growing ROS-1 osteosarcoma originated spontaneously in the tibia of a Wag/Rij rat (Barendsen et al. (1987)). The ROS-1 was implanted subcutaneously in the flank of donor Wag/Rij rats and passaged serially. The ROS-1 has a tumor doubling time of 5 days.
Fragments of the BN175 or ROS-1 (osteo)sarcoma were subcutaneously implanted into the right hindlimb of the experimental animals just above the ankle. The tumor size was measured regularly by caliper measurement in two dimensions. When the tumor reached a volume of 180-524 mm^3 (diameter between 7 and 10 mm) an isolated limb perfusion (ILP) with the recombinant adenoviral vector was performed. As a control, tumor bearing rats underwent ILP without the addition of said recombinant adenoviral vectors (termed sham ILP). An other group of tumor bearing rats underwent a direct intra-tumor injection with said recombinant adenoviral vector. The tumor volume was between 180-524 mm^3). After ILP or direct intra-tumor injection the tumor size was measured every (mon-fri)day.
Surgical procedures were performed under Hypnorm anaesthesia. […] After an incision parallel to the inguinal ligament the femoral and vein were approached and cannulated with silastic tubing (0.30 mm ID, 0.64 mm OD; 0.64 mm, 1.19 OD, respectively, Degania Silicone, Degania Bet, Israel). Collaterals were temporarily occluded by the application of a tourniquet around the groin, which was fixed to the inguinal ligament. An oxygenation reservoir and a roller pump (Masterflex) were included in the vascularly isolated circuit, which was, initially, perfused with haemaccel (Behring Pharma, Amsterdam, The Netherlands) for 3 minutes at a flow speed of 2 ml/min to wash out the blood. After the first wash out step, recirculation was performed with recombinant adenoviruses (50 μl-1 ml, containing approximately 10^9 infectious units (i.u.)) dissolved in 2.5-3.5 ml Haemaccel at the same flow rate for a time period ranging from 5 to 30 minutes. Followed by a second perfusion step of 5 minutes to wash out the non-bound virus with Haemaccel. […]

Compound | effect of addition to the IG.Ad.CMV.rIL-3 perfusion on the antitumor response
COc1cccc2c1C(=O)c1c(O)c3c(c(O)c1C2=O)C[C@@](O)(C(=O)CO)C[C@@H]3O[C@H]1C[C@H](N)[C@H](O)[C@H](C)O1 [doxorubicin] | does not influence the antitumor response
N[C@@H](Cc1ccc(N(CCCl)CCCl)cc1)C(=O)O [melphalan] | does not influence the antitumor response
TNFα | does not influence the antitumor response
